Results on 15 compounds are retold here after patent publication US11584754B2, “Derivatives of thailanstatin A, methods of treatment and methods of synthesis thereof” (WILLIAM MARSH RICE UNIVERSITY, priority 2016, dated 2023).

Common to all, as to type: cell-based, human
The test system of one experiment is MES SA. The experiment is described as follows: Cytotoxicity assay (72 hour killing assay, CellTiter-Glo), MES SA. As to conditions: MES-SA, read-out: Cancer cell lines IC50 (nM) MES SA. The method, then: (§1) Cells were cultured in a T75 flask to ˜50-80% confluency and harvested with trypsin into a single cell suspension. Five hundred (500) cells per well were seeded in tissue culture plates in 50 μL/well culture media and incubated at 37° C. for 18-24 h. Compounds were diluted as 400× final desired concentrations in DMSO. Serial dilutions in DMSO were then diluted in culture media for a final DMSO concentration of 0.25% and 50 μL/well of the final dilution was added to the cells (Vf=100 μL). Upon plating and treatment, cells were returned to the incubator for an additional 72 hours. CellTiter-Glo reagent was prepared per manufacturer's instructions and added at 100 μL/well to the cultures. CellTiter-Glo allows for relative enumeration of metabolically active cells by quantifying intracellular ATP concentrations. After 5 minutes of incubation with CellTiter-Glo at ambient room temperature, 125 μL/well of the Cell Titer glo/cell lysate solution was transferred into black assay plates, which were then read in a luminometer within 30 minutes.
(§2) MES SA and MES SA/Dx cells are uterine sarcoma. MES SA Dx cell line was generated from MES SA to achieve upregulation of MDR1.

For the next experiment, the system named is MES SA DX. Briefly: Cytotoxicity assay (72 hour killing assay, CellTiter-Glo), MES SA DX. As to conditions: Homo sapiens, read-out: Cancer cell lines IC50 (nM) MES SA DX. The method, then:
as §1, §2

The test system of a further experiment is HEK 293T. The experiment is described as follows: Cytotoxicity assay (72 hour killing assay, CellTiter-Glo), HEK 293T. The following applies: Homo sapiens, HEK-293T, 72 h, read-out: Cancer cell lines IC50 (nM) HEK 293T. The procedure: as §1
293T cells are human embryonic kidney cell line.

SMILES strings stand for the structures. Like-named read-outs stand apart in the source and are kept apart here.

`CC(=O)O[C@@H](C)/C=C\C(=O)N[C@@H]1C[C@H](C)[C@H](C/C=C(C)/C=C/[C@H]2O[C@H](CC(=O)O)C[C@@]3(CO3)[C@@H]2O)O[C@@H]1C` [Compound 1, Thailanstatin A]: the IC50 in the experiment on MES SA (Homo sapiens, 72 h) was 419 nM; with MES SA DX (MES-SA, 72 h), more than 400 nM; with HEK 293T it was 296 nM.

With `COC(=O)C[C@@H]1C[C@@]2(CO2)[C@H](O)[C@@H](/C=C/C(C)=C/C[C@@H]2O[C@H](C)[C@H](NC(=O)/C=C\[C@H](C)OC(C)=O)C[C@@H]2C)O1` [Compound 2, Thailanstatin A methyl ester], the IC50 was found to be 0.32 nM with MES SA (Homo sapiens, 72 h); 3.6 nM with MES SA DX (MES-SA, 72 h); 0.36 nM in the experiment with HEK 293T.

On to `COC(=O)C[C@@H]1C[C@@]2(CO2)[C@H](O)[C@@H](/C=C/C(C)=C/C[C@H]2O[C@H](C)[C@H](NC(=O)/C=C\[C@H](C)OC(C)=O)C=C2C)O1` [Compound 30], for which the IC50 in the experiment on MES SA (Homo sapiens, 72 h) is more than 1000 nM; with MES SA DX (MES-SA, 72 h), more than 1000 nM; with HEK 293T, more than 1000 nM.

With `CC(=O)O[C@@H](C)/C=C\C(=O)N[C@@H]1C[C@H](C)[C@H](C/C=C(C)/C=C/[C@H]2O[C@H](CC(=O)NC3CC3)C[C@@]3(CO3)[C@@H]2O)O[C@@H]1C` [Compound 31, (2S,3Z)-5-({(2R,3R,5S,6S)-6-[(2E,4E)-5-{(3R,4R,5R,7S)-7-[2-(Cyclopropylamino)-2-oxoethyl]-4-hydroxy-1,6-dioxaspiro[2.5]oct-5-yl}-3-methylpenta-2,4-dien-1-yl]-2,5-dimethyltetrahydro-2H-pyran-3-yl}amino)-5-oxopent-3-en-2-yl acetate], the IC50 in the experiment with MES SA (Homo sapiens, 72 h) was determined as 1.04 nM; in the experiment with MES SA DX (MES-SA, 72 h), 105 nM; in the experiment on HEK 293T it was 0.739 nM.

Consider `COC(=O)C[C@@H]1C[C@@]2(CO2)[C@H](O)[C@@H](/C=C/C(C)=C/C[C@@H]2O[C@H](C)[C@H](NC(=O)/C=C\[C@H](C)OC(C)=O)C=C2C)O1` [Compound 32], for which the 50% inhibitory concentration (IC50) with MES SA (Homo sapiens, 72 h) was more than 1000 nM; in the experiment on MES SA DX (MES-SA, 72 h), more than 1000 nM; with HEK 293T, more than 1000 nM.

As for `CCOC(=O)CCNC(=O)C[C@@H]1C[C@@]2(CO2)[C@H](O)[C@@H](/C=C/C(C)=C/C[C@@H]2O[C@H](C)[C@H](NC(=O)/C=C\[C@H](C)OC(C)=O)C[C@H]2C)O1` [Compound 33, Ethyl 3-({[(3R,5S,7R,8R)-7-{(1E,3E)-5-[(2S,3R,5R,6R)-5-{[(2Z,4S)-4-acetoxypent-2-enoyl]amino}-3,6-dimethyltetrahydro-2H-pyran-2-yl]-3-methylpenta-1,3-dien-1-yl}-8-hydroxy-1,6-dioxaspiro[2.5]oct-5-yl]acetyl}amino)propanoate], the IC50 is 512 nM in the experiment with MES SA (Homo sapiens, 72 h); more than 2500 nM with MES SA DX (MES-SA, 72 h); 1480 nM in the experiment with HEK 293T.

With `COC(=O)C[C@@H]1C[C@@]2(CO2)[C@H](O)[C@@H](/C=C/C(C)=C/C[C@@H]2O[C@H](C)[C@H](NC(=O)/C=C\[C@H](C)OC(C)=O)C[C@H]2C)O1` [Compound 34, Methyl [(3R,5S,7R,8R)-7-{(1E,3E)-5-[(2S,3R,5R,6R)-5-{[(2Z,4S)-4-acetoxypent-2-enoyl]amino}-3,6-dimethyltetrahydro-2H-pyran-2-yl]-3-methylpenta-1,3-dien-1-yl}-8-hydroxy-1,6-dioxaspiro[2.5]-oct-5-yl]acetate], the IC50 is 649 nM in the experiment on MES SA (Homo sapiens, 72 h); more than 1000 nM with MES SA DX (MES-SA, 72 h); more than 1000 nM in the experiment with HEK 293T.

Turning to `CCOC(=O)CCNC(=O)C[C@@H]1C[C@@]2(CO2)[C@H](O)[C@@H](/C=C/C(C)=C/C[C@@H]2O[C@H](C)[C@H](NC(=O)/C=C\[C@H](C)OC(C)=O)C[C@@H]2C)O1` [Compound 35, Ethyl 3-({[(3R,5S,7R,8R)-7-{(1E,3E)-5-[(2S,3S,5R,6R)-5-{[(2Z,4S)-4-acetoxypent-2-enoyl]amino}-3,6-dimethyltetrahydro-2H-pyran-2-yl]-3-methylpenta-1,3-dien-1-yl}-8-hydroxy-1,6-dioxaspiro-[2.5]oct-5-yl]acetyl}amino)propanoatee], the 50% inhibitory concentration (IC50) in the experiment with MES SA (Homo sapiens, 72 h) was 6.9 nM; with MES SA DX (MES-SA, 72 h), 261 nM; in the experiment on HEK 293T it was 2.2 nM.

Turning to `COC(=O)C[C@@H]1C[C@@]2(CO2)[C@H](O)[C@@H](/C=C/C(C)=C/C[C@@H]2O[C@H](C)[C@H](NC(=O)/C=C\[C@H](C)OC(=O)N(C)C)C[C@@H]2C)O1` [Compound 36, Methyl [(3R,5S,7R,8R)-7-{(1E,3E)-5-[(2S,3S,5R,6R)-5-({(2Z,4S)-4-[(dimethylcarbamoyl)oxy]pent-2-enoyl}amino)-3,6-dimethyltetrahydro-2H-pyran-2-yl]-3-methylpenta-1,3-dien-1-yl}-8-hydroxy-1,6-dioxaspiro[2.5]oct-5-yl]acetate], the 50% inhibitory concentration (IC50) in the experiment with MES SA (Homo sapiens, 72 h) stood at 0.92 nM; with MES SA DX (MES-SA, 72 h), 1.09 nM; with HEK 293T it was 0.08 nM.

In the case of `COC(=O)C[C@@H]1C[C@@]2(CO2)[C@H](O)[C@@H](/C=C/C(C)=C/C[C@@H]2O[C@H](C)[C@H](NC(=O)/C=C\[C@H](C)OC(=O)N3CCCCC3)C[C@H]2C)O1` [Compound 38, (2S,3Z)-5-{[(2R,3R,5R,6S)-6-{(2E,4E)-5-[(3R,4R,5R,7S)-4-Hydroxy-7-(2-methoxy-2-oxoethyl)-1,6-dioxaspiro[2.5]oct-5-yl]-3-methylpenta-2,4-dien-1-yl}-2,5-dimethyltetrahydro-2H-pyran-3-yl]-amino}-5-oxopent-3-en-2-yl piperidine-1-carboxylate], the IC50 was more than 2500 nM in the experiment with MES SA (Homo sapiens, 72 h); more than 2500 nM with MES SA DX (MES-SA, 72 h); more than 400 nM in the experiment with HEK 293T.

Take `COC(=O)C[C@@H]1C[C@@]2(CO2)[C@H](O)[C@@H](/C=C/C(C)=C/C[C@@H]2O[C@H](C)[C@H](NC(=O)/C=C\[C@H](C)OC(=O)N3CCOCC3)C[C@H]2C)O1` [Compound 40]: the concentration for half-maximal inhibition (IC50) in the experiment with MES SA (Homo sapiens, 72 h) is more than 2500 nM; in the experiment on MES SA DX (MES-SA, 72 h), more than 2500 nM; in the experiment with HEK 293T, more than 400 nM.

With `COC(=O)C[C@@H]1C[C@@]2(CO2)[C@H](O)[C@@H](/C=C/C(C)=C/C[C@@H]2O[C@H](C)[C@H](NC(=O)/C=C\[C@H](C)OC(=O)N3CCCCC3)C[C@@H]2C)O1` [Compound 42], the half-inhibitory concentration (IC50) with MES SA (Homo sapiens, 72 h) worked out at 3.68 nM; with MES SA DX (MES-SA, 72 h), 3.45 nM; in the experiment on HEK 293T, 0.24 nM.

Regarding `COC(=O)C[C@@H]1CC2(CC2)[C@H](O)[C@@H](/C=C/C(C)=C/C[C@@H]2O[C@H](C)[C@H](NC(=O)/C=C\[C@H](C)OC(C)=O)C[C@@H]2C)O1` [Compound 43, Methyl [(5S,7R,8S)-7-{(1E,3E)-5-[(2S,3S,5R,6R)-5-{[(2Z,4S)-4-acetoxypent-2-enoyl]amino}-3,6-di-methyltetrahydro-2H-pyran-2-yl]-3-methylpenta-1,3-dien-1-yl}-8-hydroxy-6-oxaspiro[2.5]oct-5-yl]-acetate], the half-maximal inhibitory concentration (IC50) in the experiment on MES SA (Homo sapiens, 72 h) is more than 2500 nM; with MES SA DX (MES-SA, 72 h), more than 2500 nM; with HEK 293T, 88.3 nM.

As to `COC(=O)C[C@@H]1C[C@@]2(CO2)[C@H](O)[C@@H](/C=C/C(C)=C/C[C@@H]2O[C@H](C)[C@H](NC(=O)/C=C\[C@H](C)OC(=O)N3CCOCC3)C[C@@H]2C)O1` [Compound 44], the IC50 turned out to be 2.66 nM in the experiment on MES SA (Homo sapiens, 72 h); 3.71 nM in the experiment with MES SA DX (MES-SA, 72 h); 0.15 nM in the experiment on HEK 293T.

As for `CC(=O)O[C@H]1C(=O)[C@@]2(C)[C@H]([C@H](OC(=O)c3ccccc3)[C@]3(O)C[C@H](OC(=O)[C@H](O)[C@@H](NC(=O)c4ccccc4)c4ccccc4)C(C)=C1C3(C)C)[C@]1(OC(C)=O)CO[C@@H]1C[C@@H]2O` [paclitaxel, reference compound], the IC50 is 2.47 nM with MES SA (50% inhibitory concentration against cell growth, human uterine sarcoma cell line, 72 hours) and more than 400 nM in the experiment on MES SA DX (50% inhibitory concentration against cell growth, MES SA cell line with marked multidrug resistance, 72 hours).
